Measured values taken from patent publication US10617636B2, “Cannabis infused sweeteners and elixirs” (SRE Wellness, Inc., priority 2016, dated 2020).

Test: Emulsification of coconut oil and water with different emulsifiers (Example 2)
Assay type: physicochemical
Conditions: coconut oils solid and liquid (MCT); emulsifying agent tested
Experimental: Several experiments were run using several different emulsifiers and combinations of different coconut oils: solid and liquid (MCT). (Note: liquid MCT is coconut oil that has medium chain triglyceride).
The method used to produce the invention emulsifications, included first heating extra virgin organic coconut oil to between 120 to 220 degrees F. CO2 extracted cannabis oil is added. In a high speed blender (or similar machine) coconut water is added to the coconut fat (oil) to ensure emulsification. While blending, xanthan gum powder is added in an amount between 0.15% and 0.45% of the total volume of finished product. Percentages used herein are on a dry weight basis and are based on the total volume of the finished product. The blender is run at high speed for between 30 seconds and 2.

**Q.** Which “emulsification of the oil and water (result in words)” value does the source give for cyclodextrin here?
**A.** good results
